Our source for the Ki and IC50 values is patent US7456152B2, “Peptide inhibitors of thrombin as potent anticoagulants” (priority 2004, dated 2008).

Assay [1] has as its target T1, human α-thrombin (Homo sapiens, UniProt P00734).
T1 construct: Bovine and human α-thrombins were supplied by Haematologic Technologies Inc (VT, USA); cleaved off efficiently by thrombin to generate the free N-terminus of the A-chain of human thrombin; purchased Haematologic Technologies Inc (VT, USA)
Briefly: Inhibition of the amidolytic activity of thrombin (Tos-Gly-Pro-Arg-p-nitroanilide hydrolysis). The format is biochemical. To be noted: Amidolytic assay, 25° C. (Ki, nM), Tos-Gly-Pro-Arg-pNA, 25° C. On the procedure:
Kinetics of thrombin-catalyzed hydrolysis of the chromogenic substrate Tos-Gly-Pro-Arg-p-nitroanilide were followed by absorbance at 405 nm on a Spectramax plate reader thermostated at either 25° C. or 37° C. according to the method of Maragnore et al (supra). The concentrations of Tos-Gly-Pro-Arg-p-nitroanilide ranged from 2 to 400 μM. Initial rates were calculated under conditions of <15% hydrolysis of the total substrate. The KM and Vmax values were calculated accordingly and kcat values were determined by dividing Vmax by the enzyme (thrombin) concentration. The inhibition assays were performed in the clotting buffer with a certain fixed concentration of α-thrombin (˜0.3 nM) such that linear progress curves were achieved within at least 15 min in the absence of the inhibition. The total volume of the solution was fixed at 200 μl. Reactions were initiated by addition of the chromogenic substrate to the wells containing thrombin and a certain concentration of the peptide inhibitors premixed for less than 2 min. Alternatively, the substrate was first mixed with the peptide inhibitor and the total volume was adjusted to 120 μL using the clotting buffer. Eighty microliters of human α-thrombin in the clotting buffer (˜0.3 nM final concentration) was added to initiate the reaction. The concentration of the peptides ranged from 0.5 nM to 10 μM. Kinetics data from initial rate experiments were used to construct Lineweaver-Burke plot; i.e. the relationship of (substrate concentration)^−1 versus (initial velocity)^−1 which. were analysed by linear regression with MicroCal Origin 4.1 program (MicroCal, MD) or using the GraphPad Prism software. The Ki values of the inhibitors were determined using the equation: Ki=[I]/{(SL0/SL1)−1}, where
[I] is the inhibitor concentration,
SL0 is the slope of the reaction in the absence of inhibitors, and
SL1 is the slope of the reaction in the presence of the inhibitor.
Alternatively, Dixon plots of inverse velocity versus the inhibitor concentrations were generated with the Sigmaplot™ software. Every Dixon plot contained an array of data corresponding to different substrate concentrations and the Ki values were determined from the intersections. Following Peptide Cleavage by HPLC

The target in assay [2] is T1, human α-thrombin. Briefly: Clotting assay: fibrinogen clotting by human thrombin, concentration doubling the clotting time (DCT) = IC50. The format is biochemical. How it is done:
The clotting assays were carried out by use of the protocols described previously (DiMaio, J., Gibbs, B., Munn, D., Lefebvre, J., Ni, F., and Konishi, Y. (1990) J. Biol. Chem. 265, 21698-21703; and Witting, J. I., Bourdon, P., Brezniak, D. V., Maraganore, J. M., and Fenton, J. W. (1992) Biochem. J. 283 (Pt 3), 737-743) The assay employs bovine plasma fibrinogen dissolved at 0.1% in 50 mM Tris-Cl, 100 mM NaCl, 0.1% PEG-8000 at pH 7.6 (i.e. the clotting buffer). Each assay mixture contained a certain concentration of the peptide, and the reaction was started by the addition of human thrombin to a final concentration of 0.1 NIH unit/ml. Optical absorbance of the assay mixtures was measured at 420 nm and 37° C. using the Spectramax™ plate reader. The onset clotting time was determined as an intersection of the baseline and the initial slope of the O.D. change as a result of fibrin clot formation. The concentration of a peptide needed to double the clotting time (DCT) was defined as IC50. Peptide concentrations were determined by comparing the O.D.280 values of peptide stock solutions in the clotting buffer (vide supra) with the predicted extinction coefficient for each peptide (Gill, S. C. and von Hippel, P. H. (1989) Anal. Biochem. 182, 319-326).
The peptide concentration for doubling the clotting time (DCT) was defined as the IC50 value.

Where “and” joins values, the source holds several entries; their conditions need not be identical. Equal entries are not always repeated. Ends that are not written are not given here.

One may read the Ki as the equilibrium dissociation constant of an inhibitor or competing ligand from its target. In general, IC50 refers to the concentration that gives 50% inhibition. Read a low IC50 as inhibition by little substance.

Turning to `CC[C@H](C)[C@H](NC(=O)[C@H](CCC(=O)O)NC(=O)[C@H](CCC(=O)O)NC(=O)[C@H](Cc1ccccc1)NC(=O)[C@H](CC(=O)O)NC(=O)CNC(=O)[C@H](CC(=O)O)NC(=O)[C@H](CC(N)=O)NC(=O)[C@H](Cc1c[nH]cn1)NC(=O)[C@H](CCCNC(=N)N)NC(=O)[C@H](CCC(N)=O)NC(=O)[C@@H]1CCCN1C(=O)[C@H](CCCNC(=N)N)NC(=O)[C@@H]1CCCN1C(=O)[C@H](CC(=O)O)NC(=O)[C@@H](N)Cc1ccccc1)C(=O)N1CCC[C@H]1C(=O)N[C@@H](CCC(=O)O)C(=O)N[C@@H](CCC(=O)O)C(=O)N[C@@H](Cc1ccc(O)cc1)C(=O)N[C@@H](CC(C)C)C(=O)N[C@@H](CCC(N)=O)C(=O)O` [FD22-R], at human α-thrombin [1], the Ki stood at 45 ± 6 nM. In addition, the half-inhibitory concentration (IC50) against human α-thrombin [2] was ~32 nM and 32 nM.

Regarding `CC[C@H](C)[C@H](NC(=O)[C@H](CCC(=O)O)NC(=O)[C@H](CCC(=O)O)NC(=O)[C@H](Cc1ccccc1)NC(=O)[C@H](CC(=O)O)NC(=O)CNC(=O)[C@H](CC(=O)O)NC(=O)[C@H](CC(N)=O)NC(=O)[C@H](Cc1c[nH]cn1)NC(=O)[C@H](CO)NC(=O)[C@H](CCC(N)=O)NC(=O)[C@@H]1CCCN1C(=O)[C@H](CCCNC(=N)N)NC(=O)[C@@H]1CCCN1C(=O)[C@H](CC(=O)O)NC(=O)[C@@H](N)Cc1ccccc1)C(=O)N1CCC[C@H]1C(=O)N[C@@H](CCC(=O)O)C(=O)N[C@@H](CCC(=O)O)C(=O)N[C@@H](Cc1ccc(O)cc1)C(=O)N[C@@H](CC(C)C)C(=O)N[C@@H](CCC(N)=O)C(=O)O` [FD22^(a)], the inhibitory constant (Ki) on human α-thrombin [1] was determined as 55 ± 10 nM. The same compound came in with an IC50 against human α-thrombin [2] of 50 ± 15 nM.

Regarding `CC[C@H](C)[C@H](NC(=O)[C@H](CCC(N)=O)NC(=O)[C@@H]1CCCN1C(=O)[C@H](CCCNC(=N)N)NC(=O)[C@@H]1CCCN1C(=O)[C@H](CC(N)=O)NC(=O)[C@@H](N)Cc1ccccc1)C(=O)N[C@@H](Cc1c[nH]cn1)C(=O)N[C@@H](CC(N)=O)C(=O)N[C@@H](CC(=O)O)C(=O)NCC(=O)N[C@@H](CC(=O)O)C(=O)N[C@@H](Cc1ccccc1)C(=O)N[C@@H](CCC(=O)O)C(=O)N[C@@H](CCC(=O)O)C(=O)N[C@H](C(=O)N1CCC[C@H]1C(=O)N[C@@H](CCC(=O)O)C(=O)N[C@@H](CCC(=O)O)C(=O)N[C@@H](Cc1ccc(O)cc1)C(=O)N[C@@H](CC(C)C)C(=O)N[C@@H](CCC(N)=O)C(=O)O)[C@@H](C)CC` [FN22-I], on human α-thrombin [1], the Ki amounted to 360 nM. For the same compound, the IC50 against human α-thrombin [2] turned out to be 45 nM.

On to `CC[C@H](C)[C@H](N)C(=O)N[C@@H](CCC(N)=O)C(=O)N1CCC[C@H]1C(=O)N[C@@H](CCCNC(=N)N)C(=O)N1CCC[C@H]1C(=O)N[C@@H](CCC(N)=O)C(=O)N[C@H](C(=O)N[C@@H](Cc1c[nH]cn1)C(=O)N[C@@H](CC(N)=O)C(=O)N[C@@H](CC(=O)O)C(=O)NCC(=O)N[C@@H](CC(=O)O)C(=O)N[C@@H](Cc1ccccc1)C(=O)N[C@@H](CCC(=O)O)C(=O)N[C@@H](CCC(=O)O)C(=O)N[C@H](C(=O)N1CCC[C@H]1C(=O)N[C@@H](CCC(=O)O)C(=O)N[C@@H](CCC(=O)O)C(=O)N[C@@H](Cc1ccc(O)cc1)C(=O)N[C@@H](CC(C)C)C(=O)N[C@@H](CCC(N)=O)C(=O)O)[C@@H](C)CC)[C@@H](C)CC` [IQ22-I], for which 39 ± 3 nM corresponded to half-maximal inhibition on human α-thrombin [2] (IC50).

As for WDPRPQRHNDGDFEPIPEEYLQ [WD22-R-P^(d)], the IC50 at human α-thrombin [2] stood at 8.1 ± 1.1 nM.

In the case of WDPRPQRHNDGDYEPIPEEYLQ [WD22-R-YP^(d)], inhibition on human α-thrombin [2] was half-maximal at 4.8 ± 0.8 nM (IC50).

Regarding WDPRPQSRNDGDFEPIPEEYLQ [WD22-SR-P], the midpoint of inhibition at human α-thrombin [2], the IC50, lay at 53 ± 2 nM.

As to WDPRPQSRNDGDYEPIPEEYLQ [WD22-SR-YP], 32 ± 3 nM corresponded to half-maximal inhibition on human α-thrombin [2] (IC50).
